According to US20060293315A1, “Intermediates of novel heterocyclic compounds having antibacterial activity and process for their preparation” (Dr. Reddy's Laboratories Ltd., priority 2001, published 2006):

melting point	Compound
103 °C	CCN(CC)C(=S)NC[C@H]1CN(c2ccc(N3CCOC3=O)cc2)C(=O)O1 [Example 183]
171 °C	C=CCNC(=S)NC[C@H]1CN(c2ccc(N3CCOC3=O)cc2)C(=O)O1 [Example 184]
175 °C	CNC(=S)NC[C@H]1CN(c2ccc(N3CCOC3=O)cc2)C(=O)O1 [Example 188]
161 °C	O=C1OCCN1c1ccc(N2C[C@H](CNC(=S)NCCO)OC2=O)cc1 [Example 189]
189 °C	O=C1OCCN1c1ccc(N2C[C@H](CNC(=S)Nc3ccccn3)OC2=O)cc1 [Example 191]
178 °C	NC(=S)NC[C@H]1CN(c2ccc(N3CCOC3=O)c(F)c2)C(=O)O1 [Example 192]
144 °C	CNC(=S)NC[C@H]1CN(c2ccc(N3CCOC3=O)c(F)c2)C(=O)O1 [Example 193]
92 °C	NC(=S)NC[C@H]1CN(c2cc(F)c(N3CCOC3=O)c(F)c2)C(=O)O1 [Example 194]
113 °C	CNC(=S)NC[C@H]1CN(c2cc(F)c(N3CCOC3=O)c(F)c2)C(=O)O1 [Example 195]
154 to 156 °C	COC(=S)N(C)C[C@H]1CN(c2cc(F)c(N3CNC(=O)C3)c(F)c2)C(=O)O1 [Example 198]

Continued, compound first:

Compound	melting point
COC(=S)NC[C@H]1CN(c2ccc(N3CC(=O)N(Cc4ccc(OC)cc4)C3)c(F)c2)C(=O)O1 [Example 153]	158 °C
CC(C)OC(=S)NC[C@H]1CN(c2ccc(N3CC(=O)N(Cc4ccccc4)C3)c(F)c2)C(=O)O1 [Example 154]	192 °C
COC(=S)NC[C@H]1CN(c2ccc(N3CC(=O)N(CO)C3)c(F)c2)C(=O)O1 [Example 155]	184 °C
COC(=S)NC[C@H]1CN(c2ccc(N3CC(=O)N(CO)C3)cc2)C(=O)O1 [Example 157]	202 to 208 °C
COC(=S)NC[C@H]1CN(c2ccc(N3CNC(=O)C3)cc2)C(=O)O1 [Example 158]	205 to 210 °C
CCCCN1CN(c2ccc(N3C[C@H](CNC(=S)OC)OC3=O)cc2F)CC1=O [Example 160]	122 °C
C=CCN1CN(c2ccc(N3C[C@H](CNC(=S)OC)OC3=O)cc2F)CC1=O [Example 161]	86 °C
COC(=S)NC[C@H]1CN(c2ccc(N3CC(=S)N(C)C3)c(F)c2)C(=O)O1 [Example 177]	195 °C
COCN1CN(c2ccc(N3C[C@H](CNC(=S)OC)OC3=O)cc2F)CC1=O [Example 178]	160 °C
COC(=S)NC[C@H]1CN(c2ccc(N3CC(=O)N(Cc4ccccc4)C3)c(F)c2)C(=O)O1 [Example 179]	176 °C
CCOC(=S)NC[C@H]1CN(c2ccc(N3CC(=O)N(Cc4ccccc4)C3)c(F)c2)C(=O)O1 [Example 180]	184 °C
O=C1OCCN1c1ccc(N2C[C@H](CNC(=S)N3CCC[C@H]3CO)OC2=O)cc1 [Example 182]	159 °C
O=C1OCCN1c1ccc(N2C[C@H](CNC(=S)NCc3ccccc3)OC2=O)cc1 [Example 185]	181 °C
COc1ccc(CNC(=S)NC[C@H]2CN(c3ccc(N4CCOC4=O)cc3)C(=O)O2)cc1 [Example 186]	169 °C
O=C1OCCN1c1ccc(N2C[C@H](CNC(=S)NCc3ccccn3)OC2=O)cc1 [Example 187]	165 °C
O=C1OCCN1c1ccc(N2C[C@H](CNC(=S)N3CCSCC3)OC2=O)cc1 [Example 190]	159 °C
